Laboratory results published in patent US20030125363A1, “Riluzole and alpha-tocopherol combination” (priority 1998, published 2003).

Test system: patients suffering from ALS
[1] = after 12 months of treatment, Munsat functional states

Description: The study was carried out in 289 patients in total aged over 18 years, who have been suffering from ALS for less than 5 years and in whom the vital capacity/theoretical normal vital capacity ratio is greater than or equal to 60% (the vital capacity is a routine conventional measurement of the respiratory function also called lung function test).
The patients are divided into 2 groups:
group 1: 145 patients treated with 100 mg/day of riluzole by the oral route and 1000 mg/day of α-tocopherol by the oral route,
group 2: 144 patients treated with 100 mg/day of riluzole by the oral route and placebo.
The patients are monitored for a year. The results are measured on functional scales (Munsat's functional states (RIVIERE et al., Arch. Neurol., 55, 526 (1998)), a visual analog scale (VAS) for fatigability (LACOBLEZ et al., The Lancet, 347, 1425 (1996); BENSIMON et al., New England Journal of Medicine, 330, 585 (1994)) and plasma concentration of malondialdehyde, a biochemical marker for oxidative stress (FAVIER, Analysis of free radicals in biological systems, Birk Hauser, Basel/Switzerland, 1995 p. 100-117).
The Munsat functional state A relates to patients in an average or mild state:
average state: average deficiency in 3 regions (speech, arm and leg), functionally independent in speech, activities of the upper extremities in daily and ambulatory life,
mild state: average deficiency in 3 regions or mild to severe deficiency in one region while the other two regions are normal or slightly affected.
The Munsat functional state B relates to patients in the severe or final state:
severe state: need for assistance in 2 or 3 regions, dysarthric speech and/or patients requiring assistance to walk and/or requiring assistance for the activities of the upper extremities in daily life,
final state: nonfunctional use of at least 2 regions and mild or nonfunctional use of the third region.
The progression of the functional states A and B is determined at the time of inclusion (M0) and after 12 months of treatment (M12).

## Nc1nc2ccc(OC(F)(F)F)cc2s1 [RILUZOLE AND PLACEBO, 2-amino-6-trifluoromethoxybenzothiazole]
Munsat functional state A (average or mild), after 12 months of treatment, riluzole 100 mg/day oral, α-tocopherol 1000 mg/day oral or placebo
  Condition after treatment (M12): state A: 56 number of patients
Munsat functional state A (average or mild), baseline at inclusion M0, oral treatment
  Condition on inclusion (M0): state A: 109 number of patients
Munsat functional state B (severe or final), after 12 months of treatment, riluzole 100 mg/day oral, α-tocopherol 1000 mg/day oral or placebo
  Condition after treatment (M12): state B: 63 number of patients
Munsat functional state B (severe or final), baseline at inclusion M0, oral treatment
  Condition on inclusion (M0): state B: 10 number of patients
[1]
  patients who did not exhibit any change: 66 patients
  patients who did not exhibit any change (percent): 55.3%
  patients who exhibited a worsening of the disease: 53 patients
  patients who exhibited a worsening of the disease (percent): 44.5%
